Test results taken from BigSolDB 2.1.

Nc1ccc(Sc2ccc([N+](=O)[O-])cc2)cc1
Conditions	solubility (mole fraction)
in chlorobenzene, 291.25 K	0.011
in chlorobenzene, 296.55 K	0.0133
in chlorobenzene, 301.75 K	0.0174
in chlorobenzene, 306.25 K	0.019
in chlorobenzene, 311.35 K	0.0225
in chlorobenzene, 316.65 K	0.0275
in chlorobenzene, 321.25 K	0.0314
in chloroform, 288.35 K	0.0218
in chloroform, 293.55 K	0.0264
in chloroform, 298.45 K	0.0307
in chloroform, 303.65 K	0.0361
in chloroform, 309.25 K	0.0433
in dichloromethane, 287.45 K	0.0244
in dichloromethane, 290.95 K	0.0275
in dichloromethane, 293.75 K	0.0299
in dichloromethane, 297.15 K	0.0339
in ethyl acetate, 290.45 K	0.0511
in ethyl acetate, 295.65 K	0.0575
in ethyl acetate, 300.45 K	0.063
in ethyl acetate, 305.65 K	0.0709
in ethyl acetate, 309.15 K	0.0766
in ethyl acetate, 313.65 K	0.0836
in ethyl acetate, 318.25 K	0.0911
in n-butanol, 292.55 K	0.0018
in n-butanol, 297.75 K	0.0024
in n-butanol, 302.65 K	0.0031
in n-butanol, 307.65 K	0.004
in n-butanol, 312.35 K	0.005
in n-butanol, 317.55 K	0.0061
in n-butanol, 322.25 K	0.0081
in toluene, 289.75 K	0.0183
in toluene, 294.55 K	0.0214
in toluene, 299.65 K	0.0241
in toluene, 304.75 K	0.0283
in toluene, 309.35 K	0.0337
in toluene, 314.55 K	0.0385
in toluene, 319.35 K	0.0448
in toluene, 324.65 K	0.0506
